Experimental data published in patent US6900202B2, “Di-substituted imineheterocyclic compounds” (priority 2000, dated 2005).

Key:
[1] = molecular target: T1, α4β2 subtype of nicotinic acetylcholine receptors (Rattus norvegicus, UniProt P09483+P12390); assay: Binding assay at α4β2 subtype of nicotinic acetylcholine receptors ([3H]-cytisine, rat brain membrane)
T1 construct: examined using rat brain membrane obtained from whole homogenized brain; from tissue; host or cells: whole brain membranes of Fischer-344 male rats
Description: (§1) The methods for evaluating the binding capabilities of the compounds against nicotinic acetylcholine receptors are different by subtypes of receptors. The binding capabilities of the compounds at α4β2 nicotinic acetylcholine receptors are examined using rat brain membrane obtained from whole homogenized brain, and determining the inhibiting rate of the compounds against [^3H]-cytisine binding to said brain membrane. Furthermore, the binding capabilities of the compounds at α1β1γδ nicotinic acetylcholine receptors are examined using homogenized rat muscle, and determining the inhibiting rate of the compounds against [^3H]-α-bungarotoxin binding to said muscle membrane.
Binding Assays at α4β2 Subtype of Nicotinic Acetylcholine Receptors
The affinity of the compounds of the present invention to α4β2 subunit of nicotinic acetylcholine receptors was performed by the following method, which was modified method described by Pabreza L. A., Dhawan S. & Kellar K. J., Mol. Pharm., 39, 9-12 (1990), and by Anderson D. J. & Arneric S. P., Eur. J. Pharm., 253, 261-267 (1994).
(1) Preparation of Rat Brain Membrane Containing α4β2 subtype of Nicotinic Acetylcholine Receptors
Fischer-344 strain male rats (body weight: 200-240 g; 9 weeks old) obtained from Charles River Japan were used. Rats were housed in the breeding cage controlled of the room temperature at 23±1° C., and the humidity of 55±5% for 1 to 4 weeks. Rats (3 to 4 rats per a cage) were housed with lights on for 12 hours daily (from 7:00 to 19:00), and allowed free access to food and water.
Preparation of rat brain membrane containing α4β2 subtype of nicotinic acetylcholine receptors was performed as follow. That is, rat brains were isolated just after sacrificed by decapitation, washed with ice-cooled saline solution and then frozen at −80° C. with liquid nitrogen and stored till using. After thawing the frozen brain, the brain was homogenized in 10 volumes of buffer solution (50 mM of Tris-HCl, 120 mM of NaCl, 5 mM of KCl, 1 mM of MgCl2, 2mM of CaCl2; pH 7.4; 4° C.) using homogenizer (HG30, Hitachi Kohki Ltd.) for 30 seconds, and the homogenate were centrifuged under 1,000×G for 10 minutes at 4° C. The resulting supernatant was separated and the pellet was homogenized again with half volume of aforementioned prior buffer solution and centrifuged under the same conditions. Combined supernatant was further centrifuged under 40,000×G for 20 minutes at 4° C. The pellet was suspended in buffer solution and used for binding assays at receptors.
(2) Experiments of α4β2 Subtype of Nicotinic Acetylcholine Receptors Binding
Suspensions of membrane pellets containing 400-600 μg of protein were added to test tubes containing test compounds and [^3H]-cytisine (2 nM) in a final volume of 200 μl and incubated for 75 minutes in ice-cooled bath. The samples were isolated by vacuum filtration onto Whatman GF/B filters, which were prerinsed with 0.5% polyethylenimine just prior to sample filtration, using Brandel multi manifold cell harvester. The filters were rapidly washed with buffer solution (3×1 ml). The filters were counted in 3 ml of clearsol I (Nacalai Tesque Inc.).
The analyses of the experimental results were conducted by using the Accufit Competition Program (Beckman Ltd.).

[2] = molecular target: T2, α1β1γδ subtype of nicotinic acetylcholine receptors (Rattus norvegicus, UniProt P18916+P25108+P25109+P25110); assay: biochemical; assay type: binding
T2 construct: The centrifugation at 100,000×G for 60 minutes at 4° C. yielded the rat muscle extract as supernatant
Description: as §1
Binding Assays at α1β1γδ Subtype of Nicotinic Acetylcholine Receptors
The affinity of the compounds of the present invention to α1β1γδ subtype of nicotinic acetylcholine receptors was measured by the following method, which was modified method described by Garcha H. S., Thomas P., Spivak C.
(1) Preparation of Rat Skeletal Muscles Containing α1β1γδ Subtype of Nicotinic Acetylcholine Receptors
The substantially same animals described in the Biological Experiment 1 were used.
The isolation of α1β1γδ subtype of nicotinic acetylcholine receptors was performed as follow. That is, rat posterior skeletal muscles were isolated just after sacrificed by decapitation, washed with ice-cooled saline solution and then frozen at −80° C. with liquid nitrogen and stored till using. After thawing the frozen muscles, tissue was homogenized (40% w/v) with buffer solution [2.5 mM of sodium phosphate buffer (pH:7.2), 90 mM of NaCl, 2 mM of KCl, 1 mM of EDTA, 2 mM of benzamidine, 0.1 mM of benzethonium chloride, 0.1 mM of PMSF, 0.01% of sodium azide] in Waring blender [Waring blender 34BL97; WARING PRODUCTS DIVISION DYNAMICS CORPORATION OF AMERICA) for 60 seconds. The homogenate were centrifuged under 20,000×G for 60 minutes at 4° C. The supernatant was separated and the resulting pellet was added to the same buffer (1.5 ml/g wet weight), and homogenized under the same conditions. Triton X100 (2% w/v) was added and the mixture was stirred for 3 hours at 4° C. The centrifugation at 100,000×G for 60 minutes at 4° C. yielded the rat muscle extract as supernatant. This was stored at 4° C. for up to 4 weeks, and used for binding assays at receptors.
(2) Experiments of α1β1γδ Subtype of Nicotinic Acetylcholine Receptors Binding
Receptors binding experiments were performed as follow. That is, the extract of rat muscle containing 600-900 μg of protein was added to test tubes containing test compounds and incubated for 15 minutes at 37° C. Then, to this mixture was added 1 nM of [^3H]-α-bungarotoxin (α-Bgt) and further incubated for 2 hours. The samples were isolated by vacuum filtration onto Whatman GF/B filters, which were prerinsed with 0.5% polyethylenimine just prior to sample filtration, using Brandel multi manifold cell harvester. The filters were rapidly rinsed with washing solution (10 mM of KH2PO4, 150 mM of NaCl, pH 7.2, room temperature) (5×1 ml). The filters were counted in 3 ml of clearsol I (Nacalai Tesque Inc.). The determination of nonspecific binding was incubated in the presence of 1 μM α-Bgt. […] In the receptor binding experiments, said buffer solution was added for adjusting the final concentration of BSA to be 0.05%.
The analyses of the experimental results were conducted by as described in the Biological Experiment 1.

[3] = molecular target: T3, human α4β2 subtype of nicotinic acetylcholine receptors (Homo sapiens, UniProt P17787+P43681); assay type: cell-based
T3 construct: expressed in transfected cells; host or cells: Xenopus laevis oocytes injected with hnACh-R α4 and β2 cRNA (pSP64 polyA vector)
Procedure: The agonist effect in human α4β2 subtype of nicotinic acetylcholine receptors are examined by using human nicotinic acetylcholine receptors prepared in oocytes of Xenopus laevis, which is injected with cRNA from the corresponding cloning cDNA of human α4 and β2 subunits of nicotinic acetylcholine receptors, and to measure the expression of the electric response by adding the test compounds to perfusion solution by means of membrane potential holding method.
Agonist Activities at Human α4β2 Subtype of Nicotinic Acetylcholine Receptors
The agonist activities of the compounds of the present invention at human α4β2 subtype of nicotinic acetylcholine receptors was evaluated by the following method, which was modified method described by Papke R. L., Thinschmidt J. S., Moulton B. A., Meyer E. M. & Poirier A., Br. J. Pharmacol., 120, 429-438 (1997).
(1) Preparation of cRNA of Human α4β2 Subtype of Nicotinic Acetylcholine Receptors
The cloning of human nicotinic acetylcholine receptor (hnACh-R) α4 cDNA and hnAC-R β2 cDNA were performed, in accordance with the conventional manners, by synthesizing the each DNA primers corresponding to the sequences of hnACh-R α4 cDNA and hnACh-R β2 cDNA [Monteggia L. M. et al., Gene, 155, 189-193 (1995); and Anand R., & Lindstrom J., Nucl. Acids Res., 18, 4272 (1990)], and obtained hnACh-R α4 cDNA and hnACh-R β2 cDNA by polymerase chain reaction (PCR), respectively. The obtained hnACh-R α4 cDNA and hnACh-R β2 cDNA were inserted to the cRNA expression vector (pSP64 polyA) having SP6 RNA promoter to construct hnACh-R α4/pSP64 polyA and hnACh-R β2/pSP64 polyA, respectively. After cutting from expression vector by restriction enzyme (EcoRI), transcription was performed by affecting SP6 RNA polymerase in the presence of cap analogues to obtain hnACh-R α4 cRNA and hnACh-R β2 cRNA, respectively.
(2) Expression of Human α4β2 Subtype Nicotinic Acetylcholine Receptors in Xenopus Oocytes
Oocytes were purchased from Kitanihonseibustukyohzai Co., Ltd., which were already enucleated from Xenopus laevis, and used in this experiment.
The oocytes were treated with collagenase (Sigma type I; 1 mg/ml) in calcium-free modified Birth's solution (88 mM of NaCl, 1 mM of KCl, 2.4 mM of NaHCO3, 0.82 mM of MgSO4, 15 mM of HEPES, pH 7.6) under gently stirring at the room temperature for 90 minutes, and washed out the enzyme from the tissue. Then, oocytes were separated from ovarian follicle by tweezers, and isolated oocytes were placed in antibiotics containing modified Birth's solution (88 mM of NaCl, 1 mM of KCl, 2.4 mM of NaHCO3, 0.82 mM of MgSO4, 15 mM of HEPES, pH 7.6, and 0.1 v/v % of mixture solution containing of penicillin and streptomycin for incubation; Sigma Co.). Thus treated oocytes were injected with 50 nl of adjusted cRNAs (1.0 mg/ml), that is, each 50 ng of hnACh-R α4 cRNA and hnACh-R β2 cRNA per 1 oocyte by using automatic injector (NANOJECT; DRUMMOND […] CO.), and further incubated for 4-14 days at 19° C. In oocytes, heterogeneous quintuple [(α4)2(β2)3] was composed by translation of injected cRNAs, and ion channel receptors were constructed on cell membrane.
(3) Agonist Activities at Human α4β2 Subtype of Nicotinic Acetylcholine Receptors
The recordings of responses at human α4β2 subtype of nicotinic acetylcholine receptors by means of membrane potential holding method were performed as follow. […] Test compounds were added to the perfusion solution, and recorded the peak strength of induced inward electric current. […]

T3 sequence (P43681 29-627 limits assumed): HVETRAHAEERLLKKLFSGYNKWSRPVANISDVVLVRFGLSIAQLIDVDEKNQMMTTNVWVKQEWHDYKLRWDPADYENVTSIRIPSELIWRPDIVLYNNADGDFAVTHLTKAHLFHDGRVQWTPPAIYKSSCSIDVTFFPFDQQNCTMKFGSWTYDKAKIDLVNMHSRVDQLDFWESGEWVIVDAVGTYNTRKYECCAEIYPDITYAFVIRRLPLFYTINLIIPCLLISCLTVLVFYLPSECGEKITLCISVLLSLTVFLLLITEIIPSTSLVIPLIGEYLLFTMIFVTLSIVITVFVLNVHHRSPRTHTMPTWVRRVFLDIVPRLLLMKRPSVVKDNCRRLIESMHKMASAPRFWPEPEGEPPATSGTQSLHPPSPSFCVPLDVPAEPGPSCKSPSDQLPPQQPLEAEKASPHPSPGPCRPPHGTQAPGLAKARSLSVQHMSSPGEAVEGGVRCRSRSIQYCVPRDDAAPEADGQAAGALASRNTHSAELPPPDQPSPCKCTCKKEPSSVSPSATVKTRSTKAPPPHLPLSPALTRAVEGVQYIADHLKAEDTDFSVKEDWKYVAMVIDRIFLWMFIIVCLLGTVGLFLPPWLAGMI
T3 sequence (P17787 26-502): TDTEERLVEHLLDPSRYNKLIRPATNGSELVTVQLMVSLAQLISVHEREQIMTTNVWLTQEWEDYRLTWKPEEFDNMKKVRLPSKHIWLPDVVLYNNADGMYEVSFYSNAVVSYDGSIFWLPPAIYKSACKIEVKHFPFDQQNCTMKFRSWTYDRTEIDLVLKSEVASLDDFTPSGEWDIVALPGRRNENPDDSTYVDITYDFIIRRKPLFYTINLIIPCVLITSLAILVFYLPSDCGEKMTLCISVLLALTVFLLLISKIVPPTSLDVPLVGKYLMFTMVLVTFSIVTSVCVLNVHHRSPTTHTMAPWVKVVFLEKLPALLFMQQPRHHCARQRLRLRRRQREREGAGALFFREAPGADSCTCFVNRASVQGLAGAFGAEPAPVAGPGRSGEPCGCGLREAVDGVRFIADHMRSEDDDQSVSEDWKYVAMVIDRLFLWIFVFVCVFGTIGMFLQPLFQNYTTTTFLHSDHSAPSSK
T1 sequence (P09483 31-630): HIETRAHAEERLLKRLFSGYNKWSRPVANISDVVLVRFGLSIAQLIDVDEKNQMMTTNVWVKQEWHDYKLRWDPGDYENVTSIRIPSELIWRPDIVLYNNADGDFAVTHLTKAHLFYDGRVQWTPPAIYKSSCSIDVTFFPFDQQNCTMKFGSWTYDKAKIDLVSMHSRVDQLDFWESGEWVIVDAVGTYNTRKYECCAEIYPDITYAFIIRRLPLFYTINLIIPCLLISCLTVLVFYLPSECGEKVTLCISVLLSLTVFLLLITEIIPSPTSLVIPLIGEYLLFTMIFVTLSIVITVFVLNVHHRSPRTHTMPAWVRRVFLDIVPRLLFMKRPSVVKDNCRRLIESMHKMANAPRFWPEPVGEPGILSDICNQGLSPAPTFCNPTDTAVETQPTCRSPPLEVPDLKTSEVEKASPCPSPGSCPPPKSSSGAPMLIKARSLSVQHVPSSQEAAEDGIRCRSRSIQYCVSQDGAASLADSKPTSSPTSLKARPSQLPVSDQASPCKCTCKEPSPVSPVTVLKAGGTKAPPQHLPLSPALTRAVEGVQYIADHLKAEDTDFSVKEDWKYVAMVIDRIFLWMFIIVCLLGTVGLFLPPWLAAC
T1 sequence (P12390 25-500): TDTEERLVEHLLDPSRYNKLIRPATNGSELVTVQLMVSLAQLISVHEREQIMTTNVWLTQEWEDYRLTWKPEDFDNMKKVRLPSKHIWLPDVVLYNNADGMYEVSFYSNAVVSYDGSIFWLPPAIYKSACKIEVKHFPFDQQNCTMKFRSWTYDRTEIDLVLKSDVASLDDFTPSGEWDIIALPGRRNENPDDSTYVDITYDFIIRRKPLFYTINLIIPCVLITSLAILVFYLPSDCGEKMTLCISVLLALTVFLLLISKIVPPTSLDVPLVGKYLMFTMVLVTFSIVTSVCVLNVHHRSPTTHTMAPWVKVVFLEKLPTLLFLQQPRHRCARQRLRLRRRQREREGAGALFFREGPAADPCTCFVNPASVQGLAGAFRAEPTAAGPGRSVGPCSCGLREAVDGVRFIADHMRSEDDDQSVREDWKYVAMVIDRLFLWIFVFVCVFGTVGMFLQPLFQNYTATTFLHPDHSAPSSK
T2 sequence (P25108 21-457): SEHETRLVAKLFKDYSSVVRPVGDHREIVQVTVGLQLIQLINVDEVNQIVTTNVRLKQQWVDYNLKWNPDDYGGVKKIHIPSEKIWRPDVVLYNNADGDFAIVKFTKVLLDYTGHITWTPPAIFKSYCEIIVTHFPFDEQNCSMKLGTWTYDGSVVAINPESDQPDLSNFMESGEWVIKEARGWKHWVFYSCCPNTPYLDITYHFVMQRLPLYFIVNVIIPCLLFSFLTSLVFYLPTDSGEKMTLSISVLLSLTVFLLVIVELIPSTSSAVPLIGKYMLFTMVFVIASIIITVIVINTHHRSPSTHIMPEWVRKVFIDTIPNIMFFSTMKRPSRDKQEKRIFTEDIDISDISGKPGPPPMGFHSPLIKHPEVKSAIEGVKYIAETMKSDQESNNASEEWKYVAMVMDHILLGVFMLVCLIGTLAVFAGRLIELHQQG
T2 sequence (P25109 24-501): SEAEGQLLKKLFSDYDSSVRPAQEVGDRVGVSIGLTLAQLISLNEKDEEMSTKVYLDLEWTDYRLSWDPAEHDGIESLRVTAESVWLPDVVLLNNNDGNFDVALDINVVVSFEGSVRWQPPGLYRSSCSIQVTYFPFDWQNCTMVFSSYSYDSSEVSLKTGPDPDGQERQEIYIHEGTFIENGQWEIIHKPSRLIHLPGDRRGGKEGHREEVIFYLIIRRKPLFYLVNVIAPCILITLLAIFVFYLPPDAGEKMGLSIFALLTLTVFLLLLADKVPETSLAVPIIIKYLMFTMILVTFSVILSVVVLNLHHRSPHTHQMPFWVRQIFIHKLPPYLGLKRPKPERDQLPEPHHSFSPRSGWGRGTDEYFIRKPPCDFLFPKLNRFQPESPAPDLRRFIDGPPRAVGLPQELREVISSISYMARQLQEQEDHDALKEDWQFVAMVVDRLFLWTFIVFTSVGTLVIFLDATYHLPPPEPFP
T2 sequence (P25110 22-517): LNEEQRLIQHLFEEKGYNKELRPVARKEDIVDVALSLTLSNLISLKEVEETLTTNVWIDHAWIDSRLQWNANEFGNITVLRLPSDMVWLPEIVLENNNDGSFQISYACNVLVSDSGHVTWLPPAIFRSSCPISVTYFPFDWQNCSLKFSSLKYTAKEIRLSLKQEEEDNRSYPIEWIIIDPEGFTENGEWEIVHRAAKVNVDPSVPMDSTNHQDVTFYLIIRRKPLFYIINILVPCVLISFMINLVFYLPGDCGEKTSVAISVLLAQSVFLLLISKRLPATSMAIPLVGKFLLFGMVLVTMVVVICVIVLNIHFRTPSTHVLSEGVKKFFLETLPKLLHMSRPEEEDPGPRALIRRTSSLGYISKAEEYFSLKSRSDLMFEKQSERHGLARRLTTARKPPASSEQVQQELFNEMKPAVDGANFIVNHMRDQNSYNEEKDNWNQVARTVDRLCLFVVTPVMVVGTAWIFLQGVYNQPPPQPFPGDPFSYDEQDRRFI

SMILES | Ki [1] [µM] | Ki [2] [µM] | Agonist effect [3] [%]
Clc1ccc(CC/N=C2\SCCN2Cc2ccc(Cl)nc2)cn1 [Compound 15, 3-(6-chloro-3-pyridyl)methyl-2-[2-(6-chloro-3-pyridyl)ethyl]iminothiazolidine] | 0.086 | 479 | 
CN1CCCC1c1cccnc1 (single isomer, unassigned; (-)) [Nicotine, (−)-nicotine, reference compound] |  |  | 146
